PubChem BioAssay AID248 (DTP/NCI, 2004)
Toxic doses and inconclusive results are not listed. No stated cut-off is given here; in the data, active means T/C of 150% or more; inactive means T/C below 125%.

System: L1210 leukemia ip in BDF1 mice, survival T/C
Experiment: NCI In Vivo Anticancer Drug Screen. Data for tumor model L1210 Leukemia (intraperitoneal) in B6D2F1 (BDF1) mice
Settings: endpoint: mean survival time, higher = longer survival
Method in brief: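 Tumor was transplanted into mice, which were then dosed with test compound or vehicle alone. Survival was recorded for each group, and the treated figure was expressed relative to the control figure.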

[1] = dose: 100.0 mg/kg/injection, schedule: Q01DX009 (ip), vehicle: Klucel (hydroxypropylcellulose) (HPC)
[2] = dose: 200.0 mg/kg/injection, schedule: Q01DX009 (ip), vehicle: Klucel (hydroxypropylcellulose) (HPC)
[3] = dose: 100.0 mg/kg/injection, schedule: Q04DX003 (ip), vehicle: saline with Tween-80
[4] = dose: 200.0 mg/kg/injection, schedule: Q04DX003 (ip), vehicle: saline with Tween-80
[5] = dose: 400.0 mg/kg/injection, schedule: Q04DX003 (ip), vehicle: saline with Tween-80
[6] = dose: 100.0 mg/kg/injection, schedule: Q04DX002 (ip), vehicle: Klucel (hydroxypropylcellulose) (HPC)
[7] = dose: 200.0 mg/kg/injection, schedule: Q04DX002 (ip), vehicle: Klucel (hydroxypropylcellulose) (HPC)
[8] = dose: 400.0 mg/kg/injection, schedule: Q04DX002 (ip), vehicle: Klucel (hydroxypropylcellulose) (HPC)

Measured: T/C

CCCC1OCC(C)C(C)O1 (centres undefined)
inactive: dose: 50.0 mg/kg/injection, schedule: Q01DX009 (ip), vehicle: acetone 101 % of control | dose: 100.0 mg/kg/injection, schedule: Q01DX009 (ip), vehicle: acetone 98 % of control | dose: 100.0 mg/kg/injection, schedule: Q04DX003 (ip), vehicle: acetone 106 % of control | dose: 200.0 mg/kg/injection, schedule: Q01DX009 (ip), vehicle: acetone 112 % of control | dose: 200.0 mg/kg/injection, schedule: Q04DX003 (ip), vehicle: acetone 109 % of control | dose: 400.0 mg/kg/injection, schedule: Q04DX003 (ip), vehicle: acetone 123 % of control

CC(C)(C)C12OC1C(=O)C1(C(C)(C)C)OC1C2=O (centres undefined)
inactive: [1] 97 % of control | [2] 103 % of control | dose: 400.0 mg/kg/injection, schedule: Q01DX009 (ip), vehicle: Klucel (hydroxypropylcellulose) (HPC) 105 % of control

CC(C)(C)N1CCC1CO (centres undefined)
inactive: dose: 75.0 mg/kg/injection, schedule: Q01DX001 (ip), vehicle: saline 106 % of control | dose: 150.0 mg/kg/injection, schedule: Q01DX001 (ip), vehicle: saline 97 % of control

C=CCNC(=S)N/N=C\c1cc(OC)c(OC)c(OC)c1
inactive: [3] 96 % of control | [4] 94 % of control | [5] 98 % of control

CN(C)/N=C/c1ccc(N(C)C)cc1
inactive: dose: 25.0 mg/kg/injection, schedule: Q01DX009 (ip), vehicle: Klucel (hydroxypropylcellulose) (HPC) 100 % of control | dose: 25.0 mg/kg/injection, schedule: Q04DX003 (ip), vehicle: Klucel (hydroxypropylcellulose) (HPC) 101 % of control | dose: 50.0 mg/kg/injection, schedule: Q01DX009 (ip), vehicle: Klucel (hydroxypropylcellulose) (HPC) 112 % of control | dose: 50.0 mg/kg/injection, schedule: Q04DX003 (ip), vehicle: Klucel (hydroxypropylcellulose) (HPC) 96 % of control | dose: 100.0 mg/kg/injection, schedule: Q04DX003 (ip), vehicle: Klucel (hydroxypropylcellulose) (HPC) 111 % of control

CCCCCCCCCCC(=O)CCCCCC
inactive: dose: 100.0 mg/kg/injection, schedule: Q01DX009 (ip), vehicle: other 98 % of control | dose: 200.0 mg/kg/injection, schedule: Q01DX009 (ip), vehicle: other 100 % of control | dose: 400.0 mg/kg/injection, schedule: Q01DX009 (ip), vehicle: other 107 % of control

[Br][Bi]([Br])([c]1ccccc1)([c]1ccccc1)[c]1ccccc1
inactive: dose: 12.5 mg/kg/injection, schedule: Q04DX002 (ip), vehicle: Klucel (hydroxypropylcellulose) (HPC) 97 % of control | dose: 25.0 mg/kg/injection, schedule: Q04DX002 (ip), vehicle: Klucel (hydroxypropylcellulose) (HPC) 101 % of control | dose: 50.0 mg/kg/injection, schedule: Q04DX002 (ip), vehicle: Klucel (hydroxypropylcellulose) (HPC) 104 % of control | [6] 97 % of control

C=CCOC(=O)C(C)(O)C(Cl)c1ccccc1 (centres undefined)
inactive: dose: 100.0 mg/kg/injection, schedule: Q04DX002 (ip), vehicle: saline 103 % of control | dose: 200.0 mg/kg/injection, schedule: Q04DX002 (ip), vehicle: saline 100 % of control | dose: 400.0 mg/kg/injection, schedule: Q04DX002 (ip), vehicle: saline 100 % of control

CC(C)(C)P(=O)(O)O
inactive: dose: 100.0 mg/kg/injection, schedule: Q01DX009 (ip), vehicle: saline with Tween-80 95 % of control

CCCCCCCCCCCCCCCCS(=O)(=O)Nc1cc(C(=O)NN)cc(C(=O)NN)c1
inactive: [3] 90 % of control | [4] 86 % of control | [5] 88 % of control

O=C(COc1ccc(Cl)cc1)Nc1ccc(S(=O)(=O)O)c2ccccc12
inactive: [6] 98 % of control | [7] 98 % of control | [8] 98 % of control

[Cl][Ho]([Cl])[Cl]
inactive: dose: 100.0 mg/kg/injection, schedule: Q01DX005 (ip), vehicle: Klucel (hydroxypropylcellulose) (HPC) 94 % of control | [1] 98 % of control | [6] 88 % of control | dose: 200.0 mg/kg/injection, schedule: Q01DX005 (ip), vehicle: Klucel (hydroxypropylcellulose) (HPC) 98 % of control | [2] 95 % of control | [7] 98 % of control | dose: 400.0 mg/kg/injection, schedule: Q01DX005 (ip), vehicle: Klucel (hydroxypropylcellulose) (HPC) 88 % of control | [8] 109 % of control
